Reference: patent US8748436B2, “Carboxylic acid derivatives having a 2,5,7-substituted oxazolopyrimidine ring” (Sanofi, priority 2010, dated 2014)

These molecules were tested against T1, human Edg-1 receptor (Homo sapiens, UniProt P21453) (assay: GTP-γ-S assay using human Edg-1 receptors (scintillation proximity assay, CHO Flp-In cell membrane preparation)). Conditions: test compound at 10 μM; high control 10 μM S1P regarded as 100% activation; [35S]GTP-γ-S binding, triplicate.
T1 construct: FLAG (N); expressed in transfected cells; membrane preparation
T1 sequence (P21453 whole entry): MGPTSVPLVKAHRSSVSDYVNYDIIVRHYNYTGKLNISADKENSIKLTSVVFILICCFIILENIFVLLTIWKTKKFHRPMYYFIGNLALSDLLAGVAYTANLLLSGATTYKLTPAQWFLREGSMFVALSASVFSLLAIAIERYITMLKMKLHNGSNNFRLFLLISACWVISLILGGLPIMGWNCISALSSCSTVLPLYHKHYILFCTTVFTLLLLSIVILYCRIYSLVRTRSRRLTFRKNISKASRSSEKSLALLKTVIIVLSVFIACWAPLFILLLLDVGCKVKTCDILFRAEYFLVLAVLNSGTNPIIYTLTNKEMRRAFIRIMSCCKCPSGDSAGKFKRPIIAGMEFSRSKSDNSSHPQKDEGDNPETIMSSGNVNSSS
Assay type: biochemical
Excerpt: A) GTP-γ-S Assay Using Human Edg-1 Receptors
In order to determine the Edg-1 receptor activation by the compounds of the invention, a GTP-γ-S (guanosine 5′-[thio]triphosphate) assay for G-protein coupled receptor binding based on the scintillation proximity assay principle was used, employing a cell membrane preparation from a CHO Flp-In cell line which constitutively overexpresses the human Edg-1 receptor.
The Flp-In™ expression system (Invitrogen, cat. no. K6010-01) allows the generation of stable mammalian cell lines into which the gene of interest has been integrated through homologous recombination at a specific genomic location called Flp Recombination Target (FRT) site by means of a Flp recombinase encoded by the pOG44 expression plasmid. The integration of the pcDNA5/FRT expression construct into the Flp-In host cell line genome results in the transcription of the gene of interest. The stably transfected cells become hygromycin-resistant.
One day prior to transfection, 200 000 Flp-In-CHO cells were seeded in Ham F-12 medium (Invitrogen, cat. no. 31765) supplemented with 10% fetal calf serum (FCS; Perbio Science, cat. no. SH30068.03) in a 6-well plate and incubated at 37° C./5% CO2 overnight. Using the FuGENE® 6 transfection reagent (Roche, cat. no. 11988387001), cells were cotransfected with the Flp recombinase expression plasmid pOG44 and a modified plasmid additionally containing the edg-1 gene (accession no. NM_001400) termed as pcDNA5-FRT-TO_nFLAG_DEST-EDG-1 with a 9:1 ratio. To obtain the modified pcDNA5-FRT-TO_nFLAG_DEST plasmid, the Invitrogen plasmid pcDNA5/FRT/TO (Invitrogen, cat. no. V6520-20) was adapted to the Gateway® (Invitrogen) cloning system by inserting a Gateway cassette containing attR recombination sites flanking a ccdB gene and a chloramphenicol-resistance gene (Gateway conversion system, Invitrogen, cat. no. 11828-029). In addition a FLAG tag epitope was added before the 5′ att recombination site to allow recombinant expression of N-terminally FLAG-tagged proteins.
For the transfection of one well, 1.08 μg of pOG44 and 0.12 μg of pcDNA5-FRT-TO_nFLAG_DEST-EDG-1 were mixed to 100 μl of serum-free Ham F-12 medium containing 6 μl of FuGENE® 6 transfection reagent. After 20 min of incubation, the transfection reagent/DNA complex was distributed dropwise on the cells. The cells were incubated for 24 h at 37° C. Then the cells from 3 wells were transferred to a T75 flask (Greiner Cellstar®, cat. no. 658175) containing Ham F-12 medium supplemented with 10% of FCS but without antibiotic and were incubated another 24 h. 48 h after transfection, the medium was replaced by selection medium (Ham F-12 supplemented with 10% of FCS and 300 μg/ml of hygromycin B (Invitrogen, cat. no. 10687-010)). The medium was exchanged every 2 to 3 days until a resistant population of cells had grown. […] After 2 weeks of selection, the cells were transferred into T175 flasks (Greiner Cellstar®, cat. no. 660175) and cultivated for batch production. Cells were harvested from the culture flasks by short treatment (2 to 5 min) with Accutase (PAA, cat. no. L11-007), resuspended in selection medium (see above) and centrifuged at 200×g for 5 min. The cells were resuspended in a mixture of 90% of FCS and 10% of dimethylsulfoxide and stored frozen in liquid nitrogen.
A membrane preparation was obtained by standard methods from the afore-described CHO Flp-In cell line constitutively overexpressing the human Edg-1 receptor. Briefly, the cryopreserved cells were taken in culture and grown until confluency in T175 cell culture flasks (Becton Dickinson, cat. no. 35 5001). […]

Structure (SMILES) | % Activation (Edg-1 receptor activation in percent of the activation by 10 μM S1P) [%]
CCCOc1nc(Oc2ccc(F)cc2)nc2oc(-c3cc(C)c(OCC(=O)O)c(C)c3)nc12 [Example 35, {4-[5-(4-fiuorophenoxy)-7-propoxy-oxazolo[5,4-d]pyrimidin-2-yl]-2,6-dimethylphenoxy}-acetic acid] | 79
CCCOc1nc(OC(C)CC(F)(F)F)nc2oc(-c3cc(C)c(OCC(=O)O)c(C)c3)nc12 (stereo not drawn) [Example 21, {2,6-dimethyl-4-[7-propoxy-5-(3,3,3-trifluoro-1-methyl-propoxy)-oxazolo[5,4--d]pyrimidin-2-yl]-phenoxy}-acetic acid] | 81

Same assay, conditions: test compound at 10 μM; high control 10 μM S1P regarded as 100% activation; [35S]GTP-γ-S binding, triplicate; read-out: % Activation (Edg-1 receptor activation in percent of the activation by 10 μM S1P)

activation at 10 µM [%] | Structure (SMILES)
86 | CCCOc1nc(Oc2cccc(Cl)c2)nc2oc(-c3cc(C)c(OCC(=O)O)c(C)c3)nc12 [Example 10, {4-[5-(3-chloro-phenoxy)-7-propoxy-oxazolo[5,4-d]pyrimidin-2-yl]-2,6-dimethyl-phenoxy}-acetic acid]
48 | CCCOc1nc(Oc2cc(F)cc(C(F)(F)F)c2)nc2oc(-c3cc(C)c(OCC(=O)O)c(C)c3)nc12 [Example 75, {4-[5-(3-fluoro-5-trifluoromethylphenoxy)-7-propoxy-oxazolo[5,4-d]pyrimidin-2-yl]-2,6-dimethyl-phenoxy}-acetic acid]
103 | CCCOc1nc(Oc2cccc(F)c2F)nc2oc(-c3cc(C)c(OCC(=O)O)c(C)c3)nc12 [Example 49, {4-[5-(2,3-difluorophenoxy)-7-propoxy-oxazolo[5,4-d]pyrimidin-2-yl]-2,6-dimethylphenoxy}-acetic acid]
60 | CCCOc1nc(Oc2ccc(F)c(C)c2)nc2oc(-c3cc(C)c(OCC(=O)O)c(C)c3)nc12 [Example 43, {4-[5-(4-fluoro-3-methylphenoxy)-7-propoxy-oxazolo[5,4-d]pyrimidin-2-yl]-2,6-dimethyl-phenoxy}-acetic acid]
65 | CCCOc1nc(O[C@@H]2CCCC[C@H]2F)nc2oc(-c3cc(C)c(OCC(=O)O)c(C)c3)nc12 (relative stereo) [Example 3, {4-[5-(trans-2-Fluoro-cyclohexyloxy)-7-propoxy-oxazolo[5,4-d]pyrimidin-2-yl]-2,6-dimethyl-phenoxy}-acetic acid]
97 | CCCOc1nc(Oc2ccccc2C)nc2oc(-c3cc(C)c(OCC(=O)O)c(C)c3)nc12 [Example 30, [2,6-dimethyl-4-(7-propoxy-5-(2-methylphenoxy)-oxazolo[5,4-d]pyrimidin-2-yl)-phenoxy]-acetic acid]
86 | CCCOc1nc(Oc2cc(F)cc(F)c2)nc2oc(-c3cc(C)c(OCC(=O)O)c(C)c3)nc12 [Example 50, {4-[5-(3,5-difluorophenoxy)-7-propoxy-oxazolo[5,4-d]pyrimidin-2-yl]-2,6-dimethyl-phenoxy}-acetic acid]
67 | CCCOc1nc(Oc2ccccc2C(F)(F)F)nc2oc(-c3cc(C)c(OCC(=O)O)c(C)c3)nc12 [Example 69, {2,6-dimethyl-4-[7-propoxy-5-(2-trifluoromethylphenoxy)-oxazolo[5,4-d]pyrimidin-2-yl]-phenoxy}-acetic acid]
95 | CCCOc1nc(Oc2cccc(CC)c2)nc2oc(-c3cc(C)c(OCC(=O)O)c(C)c3)nc12 [Example 40, {4-[5-(3-ethylphenoxy)-7-propoxy-oxazolo[5,4-d]pyrimidin-2-yl]-2,6-dimethyl-phenoxy}-acetic acid]
58 | CCCOc1nc(Oc2ccc3ccccc3c2)nc2oc(-c3cc(C)c(OCC(=O)O)c(C)c3)nc12 [Example 57, {2,6-dimethyl-4-[5-(naphthalen-2-yloxy)-7-propoxy-oxazolo[5,4-d]pyrimidin-2-yl]-phenoxy}-acetic acid]
86 | CCCOc1nc(Oc2ccccc2Cl)nc2oc(-c3cc(C)c(OCC(=O)O)c(C)c3)nc12 [Example 47, {4-[5-(2-chlorophenoxy)-7-propoxy-oxazolo[5,4-d]pyrimidin-2-yl]-2,6-dimethylphenoxy}-acetic acid]
54 | CCCOc1nc(Oc2cccc3c2CCC3)nc2oc(-c3cc(C)c(OCC(=O)O)c(C)c3)nc12 [Example 52, {4-[5-(indan-4-yloxy)-7-propoxy-oxazolo[5,4-d]pyrimidin-2-yl]-2,6-dimethylphenoxy}-acetic acid]
76 | CCCOc1nc(OCC2CCCCC2)nc2oc(-c3cc(C)c(OCC(=O)O)c(C)c3)nc12 [Example 11, [4-(5-cyclohexylmethoxy-7-propoxy-oxazolo[5,4-d]pyrimidin-2-yl)-2,6-dimethyl-phenoxy]-acetic acid]
78 | CCCOc1nc(Oc2cc(Cl)ccc2C)nc2oc(-c3cc(C)c(OCC(=O)O)c(C)c3)nc12 [Example 56, {4-[5-(5-chloro-2-methylphenoxy)-7-propoxy-oxazolo[5,4-d]pyrimidin-2-yl]-2,6-dimethyl-phenoxy}-acetic acid]
66 | CCCOc1nc(Oc2ccc(C)c(Cl)c2)nc2oc(-c3cc(C)c(OCC(=O)O)c(C)c3)nc12 [Example 55, {4-[5-(3-chloro-4-methylphenoxy)-7-propoxy-oxazolo[5,4-d]pyrimidin-2-yl]-2,6-dimethylphenoxy}-acetic acid]
72 | CCCOc1nc(Oc2ccc(C)cc2)nc2oc(-c3cc(C)c(OCC(=O)O)c(C)c3)nc12 [Example 31, [2,6-dimethyl-4-(7-propoxy-5-(4-methylphenoxy)-oxazolo[5,4-d]pyrimidin-2-yl)-phenoxy]-acetic acid]
97 | CCCOc1nc(Oc2ccc(F)cc2Cl)nc2oc(-c3cc(C)c(OCC(=O)O)c(C)c3)nc12 [Example 61, {4-[5-(2-chloro-4-fluorophenoxy)-7-propoxy-oxazolo[5,4-d]pyrimidin-2-yl]-2,6-dimethyl-phenoxy}-acetic acid]
117 | CCCOc1nc(Oc2cncc(F)c2)nc2oc(-c3cc(C)c(OCC(=O)O)c(C)c3)nc12 [Example 37, {4-[5-(5-fluoropyridin-3-yloxy)-7-propoxy-oxazolo[5,4-d]pyrimidin-2-yl]-2,6-dimethyl-phenoxy}-acetic acid]
84 | CCOc1nc(Oc2cccc(F)c2)nc2oc(-c3cc(C)c(OCC(=O)O)c(C)c3)nc12 [Example 25, {4-[7-ethoxy-5-(3-fluorophenoxy)-oxazolo[5,4-d]pyrimidin-2-yl]-2,6-dimethyl-phenoxy}-acetic acid]
107 | CCCOc1nc(Oc2cccc(Cl)c2C)nc2oc(-c3cc(C)c(OCC(=O)O)c(C)c3)nc12 [Example 54, {4-[5-(3-chloro-2-methylphenoxy)-7-propoxy-oxazolo[5,4-d]pyrimidin-2-yl]-2,6-dimethyl-phenoxy}-acetic acid]
83 | CCCOc1nc(OCC2CCCC2)nc2oc(-c3cc(C)c(OCC(=O)O)c(C)c3)nc12 [Example 18, [4-(5-cyclopentylmethoxy-7-propoxy-oxazolo[5,4-d]pyrimidin-2-yl)-2,6-dimethyl-phenoxy]-acetic acid]
82 | CCCOc1nc(Oc2cccc(C(F)(F)F)c2Cl)nc2oc(-c3cc(C)c(OCC(=O)O)c(C)c3)nc12 [Example 79, {4-[5-(2-chloro-3-trifluoromethylphenoxy)-7-propoxy-oxazolo[5,4-d]pyrimidin-2-yl]-2,6-dimethylphenoxy}-acetic acid]
